{"source": "patent US20060159676A1", "about": "“Methods for modulating angiogenesis, lymphangiogenesis, and apoptosis with apelin compositions” (priority 2005, published 2006)", "key": {"[1]": {"system": "BAE/APJ#2 cells (bovine aortic endothelial cells expressing mouse APJ)", "assay": "BAE/APJ#2 endothelial cell proliferation (BrdU incorporation)", "type": "cell-based", "details": "10 ng/ml, 24 hours, after 48 hours serum starvation", "method": "SU1498 was included in proliferation cultures at a concentration of 10 ng/ml and results were assayed using BrdU incorporation. After growth factor incubation, BrdU was added to each well at a final concentration of 10 μM for 2 hours, cells were washed, and fixed for BrdU immunocytochemistry.\nCells were fixed in 100% ice cold methanol at 4° C. for 2 hours to overnight. Prior to staining, cells were air dried and rehydrated for 3 minutes with PBS buffer. DNA was denatured at 37° C. with 2 M HCl, and neutralized with 2 washes for 5 minutes in 0.1 M borate buffer (pH 8.5). […] FITC-labeled anti-BrdU antibody (5 μg/ml) in block was added for 1 hour at room temperature. Cells were counterstained with propidium iodide following several washes in PBS buffer. For each experiment, 4 random fields were photographed for determination of percentage BrdU labeling."}, "[2]": {"system": "lymphatic endothelial cells", "assay": "In vivo lymphatic cell number assay, quail CAM (Prox1 staining)", "details": "collagen disk with 50 ng apelin or 100 ng VEGF-C on CAM of 7 day quail embryos, 18 hours", "method": "All experiments were carried out using chorioallantoic membranes (CAMs) of quail embryos. Quail embryos used for the lymphatic experiments were 7 days old. Collagen purified from rat tails (Bernanke and Markwald, 1982) was polymerized in 2 mm disks at a final concentration of approximately 1.6 mg/ml in standard phosphate buffered saline (PBS). The total volume of the collagen disk was approximately 10 μl. For experimental treatments, the collagen disks were supplemented with either 50 ng of apelin peptide or 100 ng of VEGF-C protein prior to polymerization at 37° C. for 30 minutes. The VEGF-C was a positive control for these experiments. (Recombinant Human VEGF-C (Cys156Ser), R&D Systems, cat # 752-vc). Apelin peptide was synthesized by Sigma-Genosys (>90% purity). […]\nThe samples were incubated with primary antibody (Prox1, Research Diagnostics, cat # RDI-102PA30, diluted to 2 μg/ml final concentration) for 4 hours at room temperature or overnight at 4° C. […] Both the lymphatic cell number as well as the number of lymphatic branches were determined.\nAssays for lymphatic cell number were carried out in areas of the CAM that were close to the location of the collagen disk as described above. Since Prox1 specifically stains lymphatic endothelial cell nuclei, the number of cells in the lymphatic branches was counted directly. […]"}, "CAM blood vessels": {"system": "CAM blood vessels", "assay": "Chick chorioallantoic membrane (CAM) assay", "type": "in vivo, chicken", "details": "50 ng on filter disc, three days, vs PBS", "method": "Chicken eggs were incubated at 37° C. in a humidified chamber. On day 10 of development, a small window was made in the outer shell of the egg, and the CAM was released from its attachment to the inner shell membrane. A larger window was then made in the egg to allow for addition of the filter paper containing growth factor. Filter discs (3 MM Whatman) of 7-8 mm diameter were pretreated with 10 μl of 0.1% cortisone acetate (Sigma) solution to avoid inflammation of the CAM. The filter discs were air dried prior to application of growth factors. […] After air-drying, the filter discs were placed on the CAM, and eggs were returned to the incubator for three days. Filter discs and the attached CAM were then excised, washed with PBS, trimmed to the size of the disc, and photographed for quantitative analysis (FIGS. 7A and 7B). The number of vessel branch points was determined using a blind protocol. The results are shown as the mean of three independent experiments ±s.e.m. (FIG. 7C)."}, "bEnd3 cells": {"system": "bEnd3 cells", "details": "apelin 10 ng/ml in bottom chamber; VEGF 50 ng/ml as comparison", "method": "Cell migration assays were performed using the bEnd3 cells in Transwell cell culture migration chambers (FIG. 20). The cells were plated in serum free medium in the upper chamber of the migration chamber. […] The cells that migrated to the bottom chamber were visualized by DAPI stain of the nuclei of the cells (Panels A, B, and C)."}, "[3]": {"system": "SVEC cells (lymphatic endothelial cell line SVEC4-10)", "details": "apelin 10 ng/ml, overnight serum starve, 8 hours of treatment", "description": "Cell migration assays as described above were performed with SVEC cells. Apelin was provided at a concentration of 10 ng/ml, and VEGF-C was provided at a concentration of 100 ng/ml."}}, "data": [{"substance": "Apelin-13", "values": [{"measurement": "endothelial cell proliferation (BrdU labeling)", "setting": "[1]", "value": "promotes endothelial cell proliferation to a similar extent as VEGF"}, {"measurement": "lymphatic cell number (Prox1 positive nuclei)", "setting": "[2]", "value": "mitogenic factor for lymphatic endothelial cells"}, {"measurement": "blood vessel formation", "setting": "CAM blood vessels", "value": "increased"}, {"measurement": "leakage of blood vessels", "setting": "CAM blood vessels", "value": "increased"}, {"measurement": "endothelial cell migration (chemotaxis)", "setting": "bEnd3 cells", "value": "acts as chemotactic agent for the endothelial cells to the same extent as VEGF"}, {"measurement": "lymphatic endothelial cell migration", "setting": "[3]", "value": "chemotactic agent for lymphatic endothelial cells"}]}]}
